Source: publication PMC7187627 (Antimicrobial Agents and Chemotherapy, 2019)
In brackets after ≈: the same amount, converted by molar mass.

Experiments:
[1] = Drug product stability (ICH Q1A(R2)); type: physicochemical; conditions: 200-mg gelatin capsules, room temperature
Excerpt: CRS3123 was provided by Crestone, Inc., in the form of dihydrochloride salt (CRS3123.2HCl) and formulated into 200-mg gelatin capsules by SRI International (Palo Alto, CA). Drug product stability specifications were met beyond the study period [stable for at least 60 months storage at room temperature monitored according to ICH Guidance for Industry Q1A(R2) Stability Testing of New Substances and Products].

[2] = tested on: C. difficile; parameters: method as in PMID 19258353; conditions: cited from earlier work
[3] = tested on: C. difficile; parameters: method as in PMID 19258353, PMID 19251726; conditions: in vivo model of CDI, compared with vancomycin; cited from earlier work
[4] = tested on: type 1 methionyl-tRNA synthetase (MetRS); parameters: method as in PMID 19258353, PMID 19251726; conditions: cited from earlier work
[5] = tested on: Bacterial strains that express type 2 MetRS; parameters: method as in PMID 19240076; conditions: most Gram-negative bacteria, Bacteroides, bifidobacteria, actinobacteria, lactobacilli; cited from earlier work

O=c1cc(NCCCN[C@@H]2CCOc3c(Br)cc(Br)cc32)[nH]c2ccsc12 [CRS3123]
drug product stability, storage time [1]: at least 60 months
MIC90 [2]: 1 µg/mL (≈ 1.95 µM)
protection of hamsters against recurrence [3]: superior to vancomycin
inhibition of type 1 MetRS [4]: potently inhibits
susceptibility of strains expressing type 2 MetRS [5]: virtually no susceptibility
